Measurements reported in US6919360B2, “Benzisothiazolyl-substituted aminomethyl chromanes for treating diseases of the central nervous system” (Bayer HealthCare AG, priority 2001, dated 2005).
pKi: −log10 of the molar value. Structures can show the parent of a compound that is named as a salt.

Tests used:
5-HT1A receptors = biological target: T1, 5-HT1A receptors (Rattus norvegicus, UniProt P19327); test: Affinity to the 5-HT1A receptor: [3H]-8-OH-DPAT binding in hippocampus membranes; details: displacement of [3H]-8-OH-DPAT, hippocampus membranes of rats; Ki calculated from IC50
T1 construct: 5-HT1A receptors in hippocampus membranes of rats; from tissue; host or cells: rat hippocampus membranes
T1 sequence (P19327 1-422): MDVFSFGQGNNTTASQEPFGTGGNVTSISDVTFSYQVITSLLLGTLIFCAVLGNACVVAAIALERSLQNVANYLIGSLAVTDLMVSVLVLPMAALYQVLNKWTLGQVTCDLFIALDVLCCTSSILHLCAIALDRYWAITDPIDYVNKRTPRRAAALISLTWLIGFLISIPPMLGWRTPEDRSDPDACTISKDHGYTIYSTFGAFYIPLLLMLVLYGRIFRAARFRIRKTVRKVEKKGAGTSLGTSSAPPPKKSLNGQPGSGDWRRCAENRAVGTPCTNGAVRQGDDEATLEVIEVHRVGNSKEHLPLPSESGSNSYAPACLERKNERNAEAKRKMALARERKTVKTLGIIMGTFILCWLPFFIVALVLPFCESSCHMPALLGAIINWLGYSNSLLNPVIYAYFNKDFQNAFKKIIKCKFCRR
Procedure: 1. Affinity to the 5-HT1A Receptor
(Dompert et al., Naunyn-Schmiedeberg's Arch. Pharmacol. 1985, 328, 467-470).
In this test, binding of [^3H]-8-OH-DPAT to 5-HT1A receptors in hippocampus membranes of rats is measured.
In the binding test, IC50 values are determined which state at which concentration of test substance 50% of bound radio ligand is displaced. Taking into account the dissociation constants and the concentration of radio ligand, this is used to calculate the inhibition constant Ki.

| pKi (5-HT1A receptors) | melting point | SMILES |
| --- | --- | --- |
| 8.50 | – | COc1cc2c(cc1O)O[C@@H](CNCCCCN1C(=O)c3ccccc3S1(=O)=O)CC2 [Example 1, (R)-(−)-2-(4-{[(7-Hydroxy-6-methoxy-3,4-dihydro-2H-chromen-2-yl)methyl]-amino}butyl)-1,2-benzisothiazol-3(2H)-one 1,1-dioxide hydrochloride] |
| 8.71 | – | O=C1c2ccccc2S(=O)(=O)N1CCCCNC[C@H]1CCc2cc(O)ccc2O1 [Example 2, 2-[4-({[(2R)-6-Hydroxy-3,4-dihydro-2H-chromen-2-yl]methyl}amino)butyl]-1,2-benzisothiazol-3(2H)-one 1,1-dioxide hydrochloride] |
| – | 220 to 222 °C | O=C1c2ccccc2S(=O)(=O)N1CCCCNC[C@H]1CCc2cc(O)ccc2O1 (as salt: hydrochloride) [Example 2, 2-[4-({[(2R)-6-Hydroxy-3,4-dihydro-2H-chromen-2-yl]methyl}amino)butyl]-1,2-benzisothiazol-3(2H)-one 1,1-dioxide hydrochloride] |
